Data taken from US7816339B2, “Treatments for Flaviviridae virus infection” (priority 2005, dated 2010).

Key:
Type in all cases: cell-based
[1] = tested on: replicon RNA (amplicon in NS5B), luciferase replicon cell line; test: Taqman assay of replicon RNA level in replicon cells; settings: Taqman real-time PCR, 2 days incubation; for IC50: 48 h, GADPH RNA as endogenous control, read-out: IC50: drug dose necessary to reach a 2-fold decrease in replicon RNA level
Procedure: (§1) Cell Culture. Cells of the luciferase replicon cell line (Vrolijk et al., J. Virol. Methods 110:201-209 (2003)) was grown in Dulbecco's minimal essential medium (DMEM) supplemented with 2 mM glutamine, non-essential amino acids (NEAA), 10 mM HEPES, 0.075% sodium bicarbonate, 100 U/ml penicillin and 100 μg/mL streptomycin, and 10% fetal bovine serum. To maintain the selection for replicon, 0.3 mg/mL of G418 were added to the culture media.
Taqman Assay Method. Replicon cells were seeded at 4000 cells/well in 96-well collagen 1-coated Biocoat Plates (Becton Dickinson). Twenty-four hours post-seeding, compounds were added to replicon cells. The final concentration of DMSO was 0.5%, fetal bovine serum was 10%, and no G418 was added. Cells were incubated with compounds for 2 days, at which point the cells were washed with PBS and lysed in 1× cell lysis buffer (Ambion). The replicon RNA level was measured using real time PCR (Taqman assay). The amplicon was located in NS5B. The PCR primers were 5B.2F, ATGGACAGGCGCCCTGA; 5B.2R, […]; the probe sequence was FAM-labeled CACGCCATGCGCTGCGG. GADPH RNA was used as an endogenous control and was amplified in the same reaction as NS5B (multiplex PCR) using primers and VIC-labeled probe recommended by the manufacturer (PE Applied Biosystem). The real-time RT-PCR reactions were run on the ABI PRISM 7900HT Sequence Detection System using the following program: 48° C. for 30 minutes, 95° C. for 10 minutes, 40 cycles of 95° C. for 15 seconds, 60° C. for 1 minute. The ACT values (CT5B-CTGADPH) were plotted against drug concentration and fitted to the sigmoid dose response model using SAS system (SAS Institute, Inc.) or PRISM software (Graphpad Software, Inc.). IC50 was the drug dose response necessary to achieve an increase of 1 in ΔCT over the projected baseline. IC90 was the drug dose response necessary to achieve an increase of 3.2 over the baseline. All Taqman reagents were from PE Applied Biosystem.
(§2) IC50: drug dose necessary to reach a 2-fold decrease in replicon RNA level. IC90: drug dose necessary to reach a 10-fold decrease in replicon RNA level EC50: drug dose necessary to reach a 2-fold decrease in luciferase signal. EC90: drug dose necessary to reach a 10-fold reduction in luciferase signal. CC50: drug dose necessary to reduce the MTS signal to 50% of that of no drug control TI: CC50/EC50 in 5-2 cells. All units are μM.

replicon cells = test: Cell toxicity assay (MTS) on replicon cells; settings: for CC50: MTS assay on replicon cells, read-out: CC50: drug dose necessary to reduce the MTS signal to 50% of that of no drug control; for TI: CC50/EC50 in 5-2 cells: ratio CC50/EC50, 5-2 cells
Procedure: (§3) Cell toxicity assay. The toxicity of compounds on the replicon cells were measured by MTS assay following manufacturer's instructions (Promega). Briefly, 20 μl of CellTiter 96®RAQueous One Solution Reagent were added to each well of the 96-well plate containing 100 μl of culture medium. The plates were incubated for 30-60 minutes before reading OD by DYNEX MRX.
as §2

[2] = tested on: replicon (luciferase signal), luciferase replicon cell line; test: Dose-response luciferase assay in replicon cells; settings: 2 days incubation, 0.5% DMSO, 10% fetal bovine serum; for EC50: 48 h, read-out: EC50: drug dose necessary to reach a 2-fold decrease in luciferase signal
Procedure: as §1
Dose-Response and Luciferase Assays. Replicon cells were seeded at 5000 cells/well in 96-well collagen 1-coated Biocoat plates (Becton Dickinson; Palo Alto, Calif.). Twenty-four hrs post-seeding, compounds (see Table 1 below) were added to replicon cells. The final concentration of DMSO was 0.5%, fetal bovine serum was 10%, and G418 was not added. The cells were incubated with the compounds for 2 days, at which point the cells were washed with PBS and lysed in 40 μl Glo Lysis Buffer (Promega; Madison, Wis.). 20 μl of lysates were mixed with 100 μl Luciferase Assay Reagent (Promega) and read on a Microtiter Plate Luminometer MLX (DYNEX Technologies; Chantilly, Va.). The fold of reduction in luciferase signal compared to no compound control was plotted against drug concentration and fitted to the sigmoid dose response model using PRISM software (Graphpad Software Inc.; San Diego, Calif.).
as §2

[3] = Cell toxicity assay (MTS) on replicon cells; settings: human; MTS assay on replicon cells; read-out: CC50: drug dose necessary to reduce the MTS signal to 50% of that of no drug control
Procedure: as §3, §2

Row | Structure (SMILES) | IC90: drug dose necessary to reach a 10-fold decrease in replicon RNA level [1] | CC50 (replicon cells) | TI: CC50/EC50 in 5-2 cells (replicon cells) | EC90: drug dose necessary to reach a 10-fold reduction in luciferase signal [2] | IC50 [1] | CC50 at 2 days [3] | EC50 [2]
1 | O=c1nc(N=CN2CCCCC2)ccn1[C@@H]1O[C@H](CO)[C@@H](O)[C@@H]1O [XI, N^4-[Piperidinomethylene]arabinocytidine] | >10 μM | > 10 µM | >100 | 8 μM |  |  | 
2 | NC(=O)c1ncn([C@@H]2O[C@H](CO)[C@@H](O)[C@H]2O)n1 [Ribavirin, 1-β-D-ribofuranosyl-1H-1,2,4-triazole-3-carboxamide, reference compound] | not reached |  | ~25 | 80 μM | 40 to 100 µM | ~500 µM | 20 µM
3 | O=c1nc(/N=C/N2CCOCC2)ccn1[C@@H]1O[C@H](CO)C(O)C1O (stereo in doubt) [XII, N^4-[Morpholinomethylene]arabinocytidine] | >10 μM |  | >500 | 1.5 μM | > 10 µM | > 10 µM | 0.02 µM
4 | O=c1nc(N=CN2CCCC2)ccn1[C@@H]1O[C@H](CO)[C@@H](O)[C@@H]1O [XIII, N^4-[Pyrrolidinomethylene]arabinocytidine] | >10 μM | > 10 µM | >100 | 5 μM |  |  | 
5 | CC(C)N(C=Nc1ccn([C@@H]2O[C@H](CO)[C@@H](O)[C@@H]2O)c(=O)n1)C(C)C [X, N^4-[(Diisopropylamino)methylene]arabinocytidine] | >10 μM | > 10 µM | >300 | 2 μM |  |  | 
6 | Nc1ccn([C@@H]2O[C@H](CO)[C@@H](O)[C@@H]2O)c(=O)n1 [Cytarabine, reference compound] | >10 μM |  | >200 | 4 μM | ~10 µM | > 10 µM | 0.05 µM
